Tests used:
Type in all cases: functional, cell-based
NCI-H226 = experiment: Antiproliferative activity against human NCI-H226 cells measured after 48 hrs by SRB assay
SK-MEL-28 = experiment: Antiproliferative activity against human SK-MEL-28 cells measured after 48 hrs by SRB assay
T47D = experiment: Antiproliferative activity against human T47D cells measured after 48 hrs by SRB assay
786-0 = experiment: Antiproliferative activity against human 786-0 cells measured after 48 hrs by SRB assay
UO-31 = experiment: Antiproliferative activity against human UO-31 cells measured after 48 hrs by SRB assay
HOP-92 = experiment: Antiproliferative activity against human HOP-92 cells measured after 48 hrs by SRB assay
OVCAR-3 = experiment: Antiproliferative activity against human OVCAR-3 cells measured after 48 hrs by SRB assay
SF-539 = experiment: Antiproliferative activity against human SF-539 cells measured after 48 hrs by SRB assay
NCI/ADR-RES = experiment: Antiproliferative activity against human NCI-ADR-RES cells measured after 48 hrs by SRB assay
OVCAR-4 = experiment: Antiproliferative activity against human OVCAR-4 cells measured after 48 hrs by SRB assay
M14 = experiment: Antiproliferative activity against human M14 cells measured after 48 hrs by SRB assay
OVCAR-5 = experiment: Antiproliferative activity against human OVCAR-5 cells measured after 48 hrs by SRB assay
COLO 205 = experiment: Antiproliferative activity against human COLO 205 cells measured after 48 hrs by SRB assay
U-251 = experiment: Antiproliferative activity against human U-251 cells measured after 48 hrs by SRB assay
SR = experiment: Antiproliferative activity against human SR cells measured after 48 hrs by SRB assay
A498 = experiment: Antiproliferative activity against human A498 cells measured after 48 hrs by SRB assay
MDA-MB-435 = experiment: Antiproliferative activity against human MDA-MB-435 cells measured after 48 hrs by SRB assay
SNB-75 = experiment: Antiproliferative activity against human SNB-75 cells measured after 48 hrs by SRB assay
SK-MEL-2 = experiment: Antiproliferative activity against human SK-MEL-2 cells measured after 48 hrs by SRB assay
WI-38 = experiment: Antiproliferative activity against human WI-38 cells measured by MTT assay
KM12 = experiment: Antiproliferative activity against human KM12 cells measured after 48 hrs by SRB assay
CCRF-CEM = experiment: Antiproliferative activity against human CCRF-CEM cells measured after 48 hrs by SRB assay
MDA-MB-231 = experiment: Antiproliferative activity against human MDA-MB-231 cells measured after 48 hrs by SRB assay
NCI-H460 = experiment: Antiproliferative activity against human NCI-H460 cells measured after 48 hrs by SRB assay
MCF7 = experiment: Antiproliferative activity against human MCF7 cells measured after 48 hrs by SRB assay
HCC 2998 = experiment: Antiproliferative activity against human HCC 2998 cells measured after 48 hrs by SRB assay
SN12C = experiment: Antiproliferative activity against human SN12C cells measured after 48 hrs by SRB assay
UACC-62 = experiment: Antiproliferative activity against human UACC-62 cells measured after 48 hrs by SRB assay
TK-10 = experiment: Antiproliferative activity against human TK-10 cells measured after 48 hrs by SRB assay
RPMI-8226 = experiment: Antiproliferative activity against human RPMI-8226 cells measured after 48 hrs by SRB assay
HL-60(TB) = experiment: Antiproliferative activity against human HL-60(TB) cells measured after 48 hrs by SRB assay
SK-OV-3 = experiment: Antiproliferative activity against human SK-OV-3 cells measured after 48 hrs by SRB assay
Malme-3M = experiment: Antiproliferative activity against human Malme-3M cells measured after 48 hrs by SRB assay
SNB-19 = experiment: Antiproliferative activity against human SNB-19 cells measured after 48 hrs by SRB assay
HT-29 = experiment: Antiproliferative activity against human HT-29 cells measured after 48 hrs by SRB assay
BT-549 = experiment: Antiproliferative activity against human BT-549 cells measured after 48 hrs by SRB assay
DU-145 = experiment: Antiproliferative activity against human DU-145 cells measured after 48 hrs by SRB assay
SF-295 = experiment: Antiproliferative activity against human SF-295 cells measured after 48 hrs by SRB assay

In the case of `O=C1c2ccccc2-c2n[nH]c3cccc1c23`, the IC50 (NCI-H226; NCI-H226, 48 h) is reported as 22.9 µM, the TGI (NCI-H226; NCI-H226, time 48 hrs) is reported as > 100 µM and the IC50 (SK-MEL-28; SK-MEL-28, 48 h) is reported as 37.5 µM. For the same molecule, the TGI (SK-MEL-28; SK-MEL-28, time 48 hrs) was > 100 µM, the IC50 (T47D; 48 h) was > 100 µM and the TGI (T47D; time 48 hrs) was > 100 µM. For the same molecule, the IC50 (786-0; 786-0, 48 h) was 27.1 µM, the TGI (786-0; 786-0, time 48 hrs) was > 100 µM and the IC50 (UO-31; UO-31, 48 h) was 10.5 µM. The TGI (UO-31; UO-31, time 48 hrs) was > 100 µM, the IC50 (HOP-92; HOP-92, 48 h) was 37.6 µM and the TGI (HOP-92; HOP-92, time 48 hrs) was > 100 µM. The IC50 (OVCAR-3; OVCAR-3, 48 h) was 15.3 µM, the TGI (OVCAR-3; OVCAR-3, time 48 hrs) was 92 µM and the IC50 (SF-539; SF-539, 48 h) was 32.2 µM. For the same molecule, the TGI (SF-539; SF-539, time 48 hrs) was > 100 µM, the IC50 (NCI/ADR-RES; 48 h) was 22.6 µM and the TGI (NCI/ADR-RES; time 48 hrs) was 59.2 µM. The IC50 (OVCAR-4; OVCAR-4, 48 h) was 31.9 µM, the TGI (OVCAR-4; OVCAR-4, time 48 hrs) was > 100 µM and the IC50 (M14; M14, 48 h) was > 100 µM. The TGI (M14; M14, time 48 hrs) was > 100 µM, the IC50 (OVCAR-5; OVCAR-5, 48 h) was 24.4 µM and the TGI (OVCAR-5; OVCAR-5, time 48 hrs) was 85.5 µM. The IC50 (COLO 205; COLO 205, 48 h) was 19.5 µM, the TGI (COLO 205; COLO 205, time 48 hrs) was > 100 µM and the IC50 (U-251; U-251, 48 h) was 23.1 µM. For the same molecule, the TGI (U-251; U-251, time 48 hrs) was > 100 µM, the IC50 (SR; 48 h) was 13.1 µM and the TGI (SR; time 48 hrs) was > 100 µM. It also gave an IC50 (A498; A498, 48 h) of 7.03 µM, a TGI (A498; A498, time 48 hrs) of 35.4 µM and an IC50 (MDA-MB-435; MDA-MB-435, 48 h) of 12.8 µM. For the same molecule, the TGI (MDA-MB-435; MDA-MB-435, time 48 hrs) was > 100 µM, the IC50 (SNB-75; SNB-75, 48 h) was 16.9 µM and the TGI (SNB-75; SNB-75, time 48 hrs) was 97.5 µM. The IC50 (SK-MEL-2; SK-MEL-2, 48 h) was 29 µM, the TGI (SK-MEL-2; SK-MEL-2, time 48 hrs) was > 100 µM and the IC50 (WI-38) was > 20 µM. It also gave an IC50 (KM12; KM12, 48 h) of 2.62 µM, a TGI (KM12; KM12, time 48 hrs) of 72.1 µM and an IC50 (CCRF-CEM; 48 h) of 16 µM. The TGI (CCRF-CEM; time 48 hrs) was > 100 µM, the IC50 (MDA-MB-231; MDA-MB-231, 48 h) was 65.3 µM and the TGI (MDA-MB-231; MDA-MB-231, time 48 hrs) was > 100 µM. For the same molecule, the IC50 (NCI-H460; NCI-H460, 48 h) was 9.86 µM, the TGI (NCI-H460; NCI-H460, time 48 hrs) was > 100 µM and the IC50 (MCF7; MCF7, 48 h) was 49 µM. The TGI (MCF7; MCF7, time 48 hrs) was > 100 µM, the IC50 (HCC 2998; HCC 2998, 48 h) was 9.62 µM and the TGI (HCC 2998; HCC 2998, time 48 hrs) was 54.6 µM. For the same molecule, the IC50 (SN12C; 48 h) was 14.8 µM, the TGI (SN12C; time 48 hrs) was > 100 µM and the IC50 (UACC-62; UACC-62, 48 h) was 14.6 µM. It also gave a TGI (UACC-62; UACC-62, time 48 hrs) of 86.5 µM, an IC50 (TK-10; TK-10, 48 h) of 5.93 µM and a TGI (TK-10; TK-10, time 48 hrs) of 52 µM. The IC50 (RPMI-8226; RPMI-8226, 48 h) was 18.8 µM, the TGI (RPMI-8226; RPMI-8226, time 48 hrs) was > 100 µM and the IC50 (HL-60(TB); HL-60, 48 h) was 42.1 µM. For the same molecule, the TGI (HL-60(TB); HL-60, time 48 hrs) was > 100 µM, the IC50 (SK-OV-3; SK-OV-3, 48 h) was 21 µM and the TGI (SK-OV-3; SK-OV-3, time 48 hrs) was > 100 µM. It also gave an IC50 (Malme-3M; 48 h) of 16.4 µM, a TGI (Malme-3M; time 48 hrs) of 58.9 µM and an IC50 (SNB-19; SNB-19, 48 h) of 50 µM. For the same molecule, the TGI (SNB-19; SNB-19, time 48 hrs) was > 100 µM, the IC50 (HT-29; HT-29, 48 h) was 25.9 µM and the TGI (HT-29; HT-29, time 48 hrs) was > 100 µM. For the same molecule, the IC50 (BT-549; BT-549, 48 h) was 30.8 µM, the TGI (BT-549; BT-549, time 48 hrs) was > 100 µM and the IC50 (DU-145; DU-145, 48 h) was 28.2 µM. The TGI (DU-145; DU-145, time 48 hrs) was > 100 µM, the IC50 (SF-295; SF-295, 48 h) was 22.5 µM and the TGI (SF-295; SF-295, time 48 hrs) was 86.3 µM.

Source: ChEMBL document CHEMBL5113453, “Design, synthesis, and biological evaluation of a new series of pyrazole derivatives: Discovery of potent and selective JNK3 kinase inhibitors” (Bioorg Med Chem, 2022)
